Experimental data published in ChEMBL document CHEMBL1201862, “PubChem BioAssay data set” (2004).
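1) Cells in 96-well plates. 2) Compound, 48 h, 5 concentrations. 3) Linear interpolation between surrounding doses. 4) Unreached endpoint = highest concentration. GI50: concentration for 50% inhibition of growth.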 Activity calls are given as the source filed them. No stated cut-off is given here; in the data, active = GI50 up to about 1.1 µM and inactive = higher.

Experiments:
Assay in all cases: NCI tumour cell line growth inhibition, 48 h
K562 = test system: K562
IGROV-1 = test system: IGROV-1
NCI-H226 = test system: NCI-H226
SN12C = test system: SN12C
KM12 = test system: KM12
SF-268 = test system: SF-268
UACC-257 = test system: UACC-257
UO-31 = test system: UO-31
RXF 393 = test system: RXF 393
NCI-H23 = test system: NCI-H23
CAKI-1 = test system: CAKI-1
SK-MEL-5 = test system: SK-MEL-5
TK-10 = test system: TK-10
OVCAR-8 = test system: OVCAR-8
LOX IMVI = test system: LOX IMVI
HOP-92 = test system: HOP-92
HCT-15 = test system: HCT-15
SK-MEL-2 = test system: SK-MEL-2

SMILES | GI50 (K562) | GI50 (IGROV-1) | GI50 (NCI-H226) | GI50 (SN12C) | GI50 (KM12) | GI50 (SF-268) | GI50 (UACC-257) | GI50 (UO-31) | GI50 (RXF 393) | GI50 (NCI-H23) | GI50 (CAKI-1) | GI50 (SK-MEL-5) | GI50 (TK-10) | GI50 (OVCAR-8) | GI50 (LOX IMVI) | GI50 (HOP-92) | GI50 (HCT-15) | GI50 (SK-MEL-2)
CC1CC[C@@]23CCC4(C)[C@@](C=CC5[C@@]6(C)CCC(=O)C(C)(C)C6CC[C@]54C)(OC2=O)[C@@H]3[C@H]1C (some centres undefined) | 6.3 µM (inactive) | 21.1 µM (inactive) | 19.8 µM (inactive) | 20.2 µM (inactive) | 12 µM (inactive) | 50.4 µM (inactive) | 6.59 µM (inactive) | 8.02 µM (inactive) | 14.1 µM (inactive) | 11.9 µM (inactive) | 21.5 µM (inactive) | 4.84 µM (inactive) | 22.4 µM (inactive) | 18.6 µM (inactive) | 13.8 µM (inactive) | 15.9 µM (inactive) | – | –
Cn1c(=O)nc2n(-c3cccc(F)c3)c3ccccc3nc-2c1=O | 19.6 µM (inactive) | 26.8 µM (inactive) | 29.6 µM (inactive) | 23.6 µM (inactive) | 23.1 µM (inactive) | 43.3 µM (inactive) | 12.8 µM (inactive) | 52 µM (inactive) | 67.9 µM (inactive) | 12.1 µM (inactive) | 27.2 µM (inactive) | 14.2 µM (inactive) | 31.6 µM (inactive) | 23.2 µM (inactive) | 18.1 µM (inactive) | – | 16.6 µM | 20.3 µM (inactive)
CC1(C)CCOC(Sc2ccccc2)C1 (centres undefined) | 21.9 µM (inactive) | > 100 µM (inactive) | – | > 100 µM (inactive) | 76.6 µM (inactive) | > 100 µM (inactive) | 35.2 µM (inactive) | 80.9 µM (inactive) | 32.1 µM (inactive) | 10.8 µM (inactive) | 96.8 µM (inactive) | 15 µM (inactive) | > 100 µM (inactive) | > 100 µM (inactive) | 91.4 µM (inactive) | – | 50.6 µM | 30.3 µM (inactive)
CN1Cc2c(nc(-c3ccc(Br)cc3)c[n+]2[O-])N(C)C1 | > 100 µM (inactive) | > 100 µM (inactive) | > 100 µM (inactive) | > 100 µM (inactive) | > 100 µM (inactive) | > 100 µM (inactive) | > 100 µM (inactive) | > 100 µM (inactive) | > 100 µM (inactive) | > 100 µM (inactive) | > 100 µM (inactive) | > 100 µM (inactive) | – | > 100 µM (inactive) | – | > 100 µM (inactive) | – | > 100 µM (inactive)
COC(=O)CC1C[C@H](C#N)N(C(=O)c2ccccc2)C[C@@H]1CC[N+](=O)[O-] (some centres undefined) | > 100 µM (inactive) | > 100 µM (inactive) | – | > 100 µM (inactive) | > 100 µM (inactive) | > 100 µM (inactive) | > 100 µM (inactive) | > 100 µM (inactive) | > 100 µM (inactive) | > 100 µM (inactive) | – | > 100 µM (inactive) | > 100 µM (inactive) | > 100 µM (inactive) | > 100 µM (inactive) | > 100 µM (inactive) | > 100 µM | 0.0546 µM (active)
COc1cccc(/C=C/c2cc(OC)c(OC)c(OC)c2)c1 | 33.3 µM (inactive) | 47.2 µM (inactive) | 18.4 µM (inactive) | 52.2 µM (inactive) | 66.4 µM (inactive) | 68.9 µM (inactive) | 38.3 µM (inactive) | 21.2 µM (inactive) | – | 30.3 µM (inactive) | – | 24.8 µM (inactive) | – | 55.6 µM (inactive) | – | > 100 µM (inactive) | 53 µM | 62.7 µM (inactive)
CCN(CC)C(=S)S [DITIOCARB SODIUM] | 0.138 µM (active) | – | > 100 µM (inactive) | > 70 µM (inactive) | 0.646 µM (active) | > 79.1 µM (inactive) | 21.2 µM (inactive) | > 100 µM (inactive) | > 57.4 µM (inactive) | – | – | 1.63 µM (inactive) | > 100 µM (inactive) | > 56.1 µM (inactive) | > 55.5 µM (inactive) | > 76.6 µM (inactive) | > 62.5 µM | > 81.1 µM (inactive)
Cc1ccc(NC(=O)CC2SC(=N)NC2=O)cc1C (centres undefined) | > 100 µM (inactive) | > 100 µM (inactive) | > 100 µM (inactive) | > 100 µM (inactive) | > 100 µM (inactive) | > 100 µM (inactive) | > 100 µM (inactive) | > 100 µM (inactive) | – | > 100 µM (inactive) | > 100 µM (inactive) | – | > 100 µM (inactive) | > 100 µM (inactive) | > 100 µM (inactive) | > 100 µM (inactive) | > 100 µM | > 100 µM (inactive)
O=C(c1ccc(Cl)cc1Cl)C1[C@H]2C(=O)N(c3ccc(Cc4ccc(N5C(=O)[C@@H]6ON(c7ccccc7)C(C(=O)c7ccc(Cl)cc7Cl)[C@@H]6C5=O)cc4)cc3)C(=O)[C@H]2ON1c1ccccc1 (some centres undefined) | > 50 µM (inactive) | > 50 µM (inactive) | > 50 µM (inactive) | > 50 µM (inactive) | > 50 µM (inactive) | > 50 µM (inactive) | > 50 µM (inactive) | > 50 µM (inactive) | > 50 µM (inactive) | > 50 µM (inactive) | > 50 µM (inactive) | > 50 µM (inactive) | > 50 µM (inactive) | > 50 µM (inactive) | > 50 µM (inactive) | – | > 50 µM | > 50 µM (inactive)
Brc1ccc(N2C[N+](c3ccc(Br)cc3)=NC(c3ccccc3)=N2)cc1 | 10.9 µM (inactive) | 14.7 µM (inactive) | 27.2 µM (inactive) | 19 µM (inactive) | 14.9 µM (inactive) | 18.3 µM (inactive) | 17.5 µM (inactive) | 14.5 µM (inactive) | 22.6 µM (inactive) | 16.1 µM (inactive) | 18.1 µM (inactive) | 16 µM (inactive) | 19.5 µM (inactive) | 21.9 µM (inactive) | – | 18.7 µM (inactive) | 17.8 µM | 17 µM (inactive)
COCC(O)Cn1ccnc1[N+](=O)[O-] (centres undefined) [MISONIDAZOLE] | > 100 µM (inactive) | – | > 100 µM (inactive) | > 100 µM (inactive) | > 100 µM (inactive) | > 100 µM (inactive) | > 100 µM (inactive) | > 100 µM (inactive) | – | > 100 µM (inactive) | > 100 µM (inactive) | – | > 100 µM (inactive) | > 100 µM (inactive) | > 100 µM (inactive) | – | > 100 µM | > 100 µM (inactive)
CC(/C(=N\Nc1ccccc1)c1ccc(O)cc1)C1C(=O)Oc2ccccc21 (centres undefined) | > 100 µM (inactive) | > 100 µM (inactive) | – | > 100 µM (inactive) | > 100 µM (inactive) | – | > 100 µM (inactive) | > 100 µM (inactive) | > 100 µM (inactive) | – | > 100 µM (inactive) | > 100 µM (inactive) | > 100 µM (inactive) | > 100 µM (inactive) | > 100 µM (inactive) | – | > 100 µM | > 100 µM (inactive)
COC(CN1C(=O)c2cccc3cccc(c23)C1=O)OC | 68.5 µM (inactive) | > 100 µM (inactive) | 26.2 µM (inactive) | 41.1 µM (inactive) | 80.4 µM (inactive) | > 100 µM (inactive) | 78.2 µM (inactive) | 37.1 µM (inactive) | > 100 µM (inactive) | > 100 µM (inactive) | – | 70.1 µM (inactive) | 74.3 µM (inactive) | 71 µM (inactive) | 53.5 µM (inactive) | 73.5 µM (inactive) | 53.6 µM | 1.61 µM (inactive)
